One data set relates to Pseudomonas aeruginosa. Nature of the data set: Inhibition of Pseudomonas aeruginosa ExoU expressed in Saccharomyces cerevisiae 14328 harboring pdr1/pdr3 genes assessed as cell death measured as yeast growth recovery at 5 uM after 48 hrs by copper-inducible promoter CUP1 assay. Set-up: scale not given: the % may be the effect or the level left.
The nature of data set [1]: Toxicity against Saccharomyces cerevisiae 14328 assessed as cell viability at 5 uM after 48 hrs. It counts as organism-based. The settings on record: Saccharomyces cerevisiae 14328 cells, read-out: Activity.
Data set [2] is described as follows: Cytotoxicity against HEK293T cells assessed as cell viability at 5 uM after 48 hrs. The data set is classed as cell-based, HEK-293T. The settings on record: human, read-out: Activity.

These results are taken from ChEMBL document CHEMBL3352524, “Identification of arylsulfonamides as ExoU inhibitors” (Bioorg Med Chem Lett, 2014).

In the case of `O=S(=O)(Nc1ccc2c(c1)OCCO2)c1ccc(C(F)(F)F)cc1`, in the data set with Pseudomonas aeruginosa, the Activity stood at 27.6%. Further, the viability at 48 h, 5 µM in data set [1] was greater than 90%.

With `CCCCCc1ccc(S(=O)(=O)Nc2ccc3c(c2)OCCO3)cc1`, the Activity in the data set on Pseudomonas aeruginosa came to 9%. Moreover, the viability at 48 h, 5 µM in data set [1] is greater than 90%.

As to `CCCc1ccc(OCCNS(=O)(=O)c2c(C)cc(C)cc2C)cc1`, in the data set with Pseudomonas aeruginosa, the Activity worked out at 30.6%. The viability at 48 h, 5 µM stood at 72.3% in data set [2] and 85.2% in data set [1].

Take `O=S(=O)(Nc1cccc2ccccc12)c1ccc(C(F)(F)F)cc1`: the Activity in the data set on Pseudomonas aeruginosa is 45.4%. Besides, the viability at 48 h, 5 µM in data set [2] and in data set [1] was greater than 90% in each case.

For the molecule `Cc1cc(C)c(S(=O)(=O)Nc2ccc3c(c2)OCCO3)c(C)c1`, the Activity in the data set with Pseudomonas aeruginosa stood at 60.2%. The viability at 48 h, 5 µM in data set [2] and in data set [1] was greater than 90% each time.

Turning to `CC(C)(C)c1ccc(S(=O)(=O)Nc2ccc3c(c2)OCCO3)cc1`, in the data set on Pseudomonas aeruginosa, the Activity was determined as 52.2%. Besides, the figures for the viability at 48 h, 5 µM in data set [2] and in data set [1] were 87.7% and greater than 90%, respectively.

On to `NC(=O)c1cccc2c1-c1ccccc1C2`, for which the Activity in the data set on Pseudomonas aeruginosa stood at 84.7%. Besides, the viability at 48 h, 5 µM in data set [2] and in data set [1] was greater than 90% throughout.

As for `Cc1cc(C)c(NS(=O)(=O)c2ccc3c(c2)OCCO3)c(C)c1`, the Activity with Pseudomonas aeruginosa turned out to be 21%. Besides, in data set [1], the viability at 48 h, 5 µM was found to be 89.1%.

For the molecule `Cc1cc(C)c(S(=O)(=O)NCCOc2ccccc2)c(C)c1`, the Activity with Pseudomonas aeruginosa was 23.7%. For the same molecule, the viability at 48 h, 5 µM in data set [1] was greater than 90%.

Take `COc1ccc(NS(=O)(=O)c2c(C)cc(C)cc2C)cc1OC`: in the data set on Pseudomonas aeruginosa, the Activity stood at 18.5%. Also, the viability at 48 h, 5 µM in data set [1] is greater than 90%.

Regarding `O=S(=O)(Nc1ccc2c(c1)OCCO2)c1ccc2ccccc2c1`, in the data set with Pseudomonas aeruginosa, the Activity stood at 36.6%. In addition, the viability at 48 h, 5 µM was 87.5% in data set [2] and greater than 90% in data set [1].
